The supplement of paper PMC10307832

Assays:
Test in all cases: relative viability (nuclei count vs DMSO), 5 days (fraction); higher = more cells survive
[1] = tested on: PC-3 [JPC-3]
How it was run: (§1)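 Lung cancer cell lines in 1536-well plates got either a single drug or a fixed anchor-drug dose together with five library-drug doses (not always all listed) in √10 steps, by pin tool, on the day after seeding. Nuclei were counted after 5 days, and relative viability is the treated-to-vehicle ratio of nuclei counts. Values are medians of duplicate plates.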

[2] = tested on: NCI-H2405
How it was run: as §1

[3] = tested on: NCI-H1792
How it was run: as §1

[4] = tested on: HCC-15
How it was run: as §1

[5] = tested on: NCI-H2087
How it was run: as §1

[6] = tested on: CAL-12T
How it was run: as §1

[7] = tested on: HARA
How it was run: as §1

[8] = tested on: NCI-H2170
How it was run: as §1

[9] = tested on: NCI-H1651
How it was run: as §1

[10] = tested on: NCI-H23
How it was run: as §1

[11] = tested on: LCLC-97TM1
How it was run: as §1

[12] = tested on: 201T
How it was run: as §1

[13] = tested on: HCC-827
How it was run: as §1

[14] = tested on: NCI-H1395
How it was run: as §1

[15] = tested on: LU99A
How it was run: as §1

[16] = tested on: H3255
How it was run: as §1

[17] = tested on: NCI-H650
How it was run: as §1

## C=C1C(=O)O[C@@H](CCCCCCCC)[C@@H]1C(=O)O [C-75] + NC(=O)Nc1cc(-c2cccc(F)c2)sc1C(=O)N[C@H]1CCCNC1 [AZD7762] (partner 0.2 µM)
[1]; first compound 0.08 µM
  relative viability: 0.845
[1]; first compound 0.253 µM
  relative viability: 0.801
[1]; first compound 0.8 µM
  relative viability: 0.801
[1]; first compound 2.53 µM
  relative viability: 0.6
[1]; first compound 8 µM
  relative viability: 0.753
[2]; first compound 0.08 µM
  relative viability: 0.689
[2]; first compound 0.253 µM
  relative viability: 0.4
[2]; first compound 0.8 µM
  relative viability: 0.831
[2]; first compound 2.53 µM
  relative viability: 0.67
[2]; first compound 8 µM
  relative viability: 0.764
[3]; first compound 0.08 µM
  relative viability: 0.787
[3]; first compound 0.253 µM
  relative viability: 0.623
[3]; first compound 0.8 µM
  relative viability: 0.748
[3]; first compound 2.53 µM
  relative viability: 0.443
[3]; first compound 8 µM
  relative viability: 0.554
[4]; first compound 0.08 µM
  relative viability: 1.37
[4]; first compound 0.253 µM
  relative viability: 1.39
[4]; first compound 0.8 µM
  relative viability: 1.2
[4]; first compound 2.53 µM
  relative viability: 0.78
[4]; first compound 8 µM
  relative viability: 1.22
[5]; first compound 0.08 µM
  relative viability: 1.59
[5]; first compound 0.253 µM
  relative viability: 1.23
[5]; first compound 0.8 µM
  relative viability: 1.07
[5]; first compound 2.53 µM
  relative viability: 1.3
[5]; first compound 8 µM
  relative viability: 1.09
[6]; first compound 0.08 µM
  relative viability: 0.683
[6]; first compound 0.253 µM
  relative viability: 0.713
[6]; first compound 0.8 µM
  relative viability: 0.586
[6]; first compound 2.53 µM
  relative viability: 0.548
[6]; first compound 8 µM
  relative viability: 0.64
[7]; first compound 0.08 µM
  relative viability: 0.568
[7]; first compound 0.253 µM
  relative viability: 0.469
[7]; first compound 0.8 µM
  relative viability: 0.213
[7]; first compound 2.53 µM
  relative viability: 0.447
[7]; first compound 8 µM
  relative viability: 0.722
[8]; first compound 0.08 µM
  relative viability: 0.945
[8]; first compound 0.253 µM
  relative viability: 1.1
[8]; first compound 0.8 µM
  relative viability: 0.858
[8]; first compound 2.53 µM
  relative viability: 0.737
[8]; first compound 8 µM
  relative viability: 0.887
[9]; first compound 0.08 µM
  relative viability: 0.431
[9]; first compound 0.253 µM
  relative viability: 0.511
[9]; first compound 0.8 µM
  relative viability: 0.358
[9]; first compound 2.53 µM
  relative viability: 0.374
[9]; first compound 8 µM
  relative viability: 0.509
[10]; first compound 0.08 µM
  relative viability: 0.255
[10]; first compound 0.253 µM
  relative viability: 0.43
[10]; first compound 0.8 µM
  relative viability: 0.263
[10]; first compound 2.53 µM
  relative viability: 0.197
[10]; first compound 8 µM
  relative viability: 0.376
[11]; first compound 0.08 µM
  relative viability: 0.248
[11]; first compound 0.253 µM
  relative viability: 0.581
[11]; first compound 0.8 µM
  relative viability: 0.218
[11]; first compound 2.53 µM
  relative viability: 0.254
[11]; first compound 8 µM
  relative viability: 0.833
[12]; first compound 0.08 µM
  relative viability: 0.588
[12]; first compound 0.253 µM
  relative viability: 0.687
[12]; first compound 0.8 µM
  relative viability: 0.631
[12]; first compound 2.53 µM
  relative viability: 0.507
[12]; first compound 8 µM
  relative viability: 0.566
[13]; first compound 0.253 µM
  relative viability: 0.245
[13]; first compound 0.8 µM
  relative viability: 0.201
[13]; first compound 8 µM
  relative viability: 0.355
[14]; first compound 0.08 µM
  relative viability: 0.358
[14]; first compound 0.253 µM
  relative viability: 0.386
[14]; first compound 2.53 µM
  relative viability: 0.4
[14]; first compound 8 µM
  relative viability: 0.413
[15]; first compound 0.08 µM
  relative viability: 0.36
[15]; first compound 0.253 µM
  relative viability: 0.529
[15]; first compound 0.8 µM
  relative viability: 0.33
[15]; first compound 2.53 µM
  relative viability: 0.284
[15]; first compound 8 µM
  relative viability: 0.401
[16]; first compound 0.08 µM
  relative viability: 0.847
[16]; first compound 0.253 µM
  relative viability: 0.893
[16]; first compound 0.8 µM
  relative viability: 0.774
[16]; first compound 2.53 µM
  relative viability: 0.885
[16]; first compound 8 µM
  relative viability: 0.865
[17]; first compound 0.08 µM
  relative viability: 0.935
[17]; first compound 0.253 µM
  relative viability: 0.796
[17]; first compound 0.8 µM
  relative viability: 1.01
[17]; first compound 2.53 µM
  relative viability: 0.81
[17]; first compound 8 µM
  relative viability: 1.02
